Tests used:
[1] = stability of additives with paclitaxel under ethylene oxide sterilization, heating and aging; conditions: additive with paclitaxel; reacted with paclitaxel
[2] = BPH Preclinical Study 4: tissue pharmacokinetics of paclitaxel; format: in vivo, dog
Description: (§1) This study was completed on mongrel canines.

[3] = BPH Preclinical Study 4: plasma paclitaxel concentration; format: in vivo, dog
Description: as §1

[4] = tested on: prostate; test: BPH Preclinical Study 4: histology, clinical observation, urethra lumen diameter; format: in vivo, dog
Description: as §1

[5] = Human clinical study, urethral strictures: paclitaxel in blood, urine, semen; format: in vivo
Description: Clinical subjects were evaluated at 14, 30, 90, 180, 365 days, and 2 years after the index procedure. Evaluations included analysis of stricture free rate, uroflowmetry including Qmax, and PVR.

[6] = Human clinical study, BPH: paclitaxel in blood, urine, semen; format: in vivo
[7] = with the addition of BSA; cited from earlier work
[8] = tested on: albumin; conditions: cited from earlier work

Structure (SMILES): O=C(O)c1ccccc1 [benzoic acid]
- stability under ethylene oxide sterilization, heating, and aging process [1]: not stable

Structure (SMILES): CC(=O)O[C@H]1C(=O)[C@@]2(C)[C@H]([C@H](OC(=O)c3ccccc3)[C@]3(O)C[C@H](OC(=O)[C@H](O)[C@@H](NC(=O)c4ccccc4)c4ccccc4)C(C)=C1C3(C)C)[C@]1(OC(C)=O)CO[C@@H]1C[C@@H]2O [paclitaxel]
- prostate drug concentration, maximum dose arm versus standard dose ([2]; 28 days): 4.5 times
- prostatic urethra drug concentration, maximum dose arm versus standard dose ([2]; 28 days): 11 times
- prostate drug concentration, maximum dose arm versus standard dose ([2]; 70 days): 23 times
- prostatic urethra drug concentration, maximum dose arm versus standard dose ([2]; 70 days): 23 times
- average drug concentration, epididymis ([2]; lowest, immediately after treatment): 0.0017 µg/g
- concentration at 28 days ([2]; male, mongrel, dog, prostate, other: transurethral drug-coated balloon catheter, 6.8 mg, standard dose arm, 28 days): 20 ng/g
- concentration at 1 h ([2]; male, mongrel, dog, prostatic urethra, other: transurethral drug-coated balloon catheter, 6.8 mg): 28000 ng/g
- concentration at 70 days ([2]; male, mongrel, dog, prostatic urethra, other: transurethral drug-coated balloon catheter, 6.8 mg, standard dose arm, 70 days): 4 ng/g
- nonurethral close proximity tissue sample concentrations ([2]; most samples, 28 days and beyond): at or below the limit of quantification
- plasma paclitaxel concentration ([3]; maximum dose, 12 hour and later): BLOQ
- plasma paclitaxel concentration ([3]; standard dose, all time-points (1, 3, 7, 12 hours, 1, 3, 7, 14, and 28 days)): BLOQ
- clinical abnormalities ([4]; any animals, duration of the study): No significant clinical abnormalities
- prostate histology ([4]; maximum dose animals, slower healing relative to standard dose and control): ongoing healing at 28 days
- abnormalities or complications ([4]; maximum dose treatment arm using 19.6 mg of paclitaxel): no abnormalities or complications
- Human plasma paclitaxel concentration ([5]; 1 hour, 3 hours, 5 hours, 10 hours, 24 hours, and 5 days): below the level of quantification
- concentration at 14 days ([5]; human, semen): 2.5 ng/mL
- concentration at 30 days ([5]; human, semen): 1 ng/mL
- concentration at 5 days ([5]; human, urine, 5 days): 2.6 ng/mL
- concentration at 14 days ([5]; human, urine): 0.3 ng/mL
- concentration at 30 days ([5]; human, urine): 0.1 ng/mL
- Human urine paclitaxel concentration, average ([5]; immediately post procedure): 184 ng/mL
- Human plasma paclitaxel concentration, average ([5]; immediately post treatment): 0.1 ng/mL
- Human urine paclitaxel concentration, average ([6]; immediately post procedure): 598 ng/mL
- Human plasma paclitaxel concentration, average ([6]; immediately post treatment): 0.2 ng/mL
- concentration at 1 h ([6]; male, human, plasma, 2.4 μg of paclitaxel per millimeter squared, 1 hour): 0.2 ng/mL
- concentration at 3 h ([6]; male, human, plasma, 2.4 μg of paclitaxel per millimeter squared, 3 hours): 0.1 ng/mL
- concentration at 5 h ([6]; male, human, plasma, 2.4 μg of paclitaxel per millimeter squared, 5 hours): 0.1 ng/mL
- concentration at 10 h ([6]; male, human, plasma, 2.4 μg of paclitaxel per millimeter squared, 10 hours): 0.07 ng/mL
- concentration at 24 h ([6]; male, human, plasma, 2.4 μg of paclitaxel per millimeter squared, 24 hours): 0.03 ng/mL
- concentration at 14 days ([6]; male, human, semen, 2.4 μg of paclitaxel per millimeter squared, 14 days): 5.3 ng/mL
- concentration at 4 days ([6]; male, human, urine, 2.4 μg of paclitaxel per millimeter squared, 4 days): 202 ng/mL
- concentration at 30 days ([6]; male, human, urine, 2.4 μg of paclitaxel per millimeter squared, 30 days): 5.1 ng/mL
- increase of solubility in PBS [7]: over 20 fold

Structure (SMILES): CO[C@H]1C[C@@H]2CC[C@@H](C)[C@@](O)(O2)C(=O)C(=O)N2CCCC[C@H]2C(=O)O[C@H]([C@H](C)C[C@@H]2CC[C@@H](O)[C@H](OC)C2)CC(=O)[C@H](C)/C=C(\C)[C@@H](O)[C@@H](OC)C(=O)[C@H](C)C[C@H](C)/C=C/C=C/C=C/1C [rapamycin]
- protein bound [8]: 92%
- share of protein binding that is to albumin ([8]; primarily to albumin): 97%

— patent publication US12280179B2 (Urotronic, Inc., priority 2012, dated 2025)
